Data as given in patent US10597398B2, “Suppression and regeneration promoting effect of low molecular weight compound on cancer and fibrosis” (NATIONAL UNIVERSITY CORPORATION TOTTORI UNIVERSITY, priority 2015, dated 2020).

Key:
Wnt/β-catenin signaling = experiment: Inhibitory effect on Wnt/β-catenin signaling in liver cancer cells (HuH7-TCF4 luciferase); format: cell-based, human; settings: concentration equal to or lower than that of IC-2
How it was run: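 HuH-7 cells stably carrying a 3×TCF4-motif firefly luciferase reporter, treated 48 h at 37 °C with compounds at concentrations reducing HuH-7 growth to about 50% or less (n=3). Firefly luciferase luminescence read from lysates; 0.1% DMSO solvent control, 0.5 μM 5-FU control; Student's t-test.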

[1] = test system: CD44-positive HuH-7 cells; experiment: Liver cancer model mouse, tumor volume; format: in vivo, mice; settings: 50 mg/kg IC-2 vs 30 mg/kg 5-FU, intraperitoneally every three days
Description: CD44-positive HuH-7 cells were subcutaneously transplanted in mice. Next, the engrafted mice were divided into 3 groups (DMSO group: 5 mice; 5-FU group: 4 mice; and IC-2 group: 4 mice). Then, DMSO was added to prepare 30 mg/kg of 5-FU and 50 mg/kg of IC-2 such that each liquid volume was 100 μL; and 100% DMSO, a solvent for each drug, was used as a control sample. Subsequently, each drug was dosed intraperitoneally every three days. The body weight of each mouse and the long and short diameters of a tumor were measured every three days. The tumor volume was calculated by using the following equation: Tumor volume=Long diameter×(Short diameter)^2×0.5. The volume at Day 0 was used to normalize each tumor volume, and then a graph was created. To fully evaluate a 5-FU effect, the 5-FU dose was set to an amount 2 times the regular amount 15 mg/kg used in research articles. The concentration of IC-2 corresponding to a concentration at which Wnt/β-catenin signaling was inhibited in vitro was calculated. Then, the concentration was doubled to set an IC-2 dose.

## COc1ccc(COc2ccc(CNC(=O)N3CCC(=O)N4C(Cc5ccccc5)C(=O)N(Cc5cccc6ccccc56)CC34)cc2)cc1 (centres unmarked) [IC-2-OPMB]
Wnt/β-catenin signaling
  inhibitory effect on Wnt/β-catenin signaling pathway in liver cancer cells compared with IC-2: more potent inhibitory effect

## O=C1C(Cc2ccccc2)N2C(=O)CCN(C(=O)NCc3ccccc3)C2CN1Cc1cccc2ccccc12 (centres unmarked) [IC-2]
[1]
  anti-malignant tumor therapeutic effect (tumor volume): more remarkable anti-malignant tumor therapeutic effect than 5-FU
